The test deals with individuals with schizophrenia. Nature of the test: Therapeutic administration of dextromethorphan in schizophrenia (summary statement). The test is classed as in vivo, human.

One compound from patent US20190008850A1, “METHOD OF TREATING SCHIZOPHRENIA” (priority 2015, published 2019) can be followed below.

Each structure is given as a SMILES string. Counter-ions that a name gives are not always drawn.

Consider `COc1ccc2c(c1)[C@]13CCCC[C@@H]1[C@H](C2)N(C)CC3` [dextromethorphan, morphinan, 3-methoxy-17-methyl-, (9a, 13a, 14a)-hydrobromide monohydrate], for which the progression of schizophrenia entry (administered at first break) was “mitigated the progression of schizophrenia, and in some cases, reversed the disorder”. Further, the “positive symptoms, in particular expressions of hostility” value (in vivo) is reported as “appears to also reduce some positive symptoms”. In addition, under “individuals with established schizophrenia diagnoses”, the “frequency and intensity of negative symptoms” value is listed as “significantly reduced”. For the same compound, under “therapeutic administration”, the “negative symptoms of schizophrenia” value is listed as “substantially reduces”.
